Assay results taken from US6852316B2, “Cancer treatment” (Queen Mary & Westfield College, priority 1998, dated 2005).
“Also recorded” adds a separate entry of the source.

Columns and labels:
Type in all cases: cell-based
β1 integrin [1] = test: 125I labelling and immunoprecipitation of β1 integrin, SDS-PAGE autoradiography; settings: MCF-7 cells, A-II 10^−5 M for 24 hours, compared to control, non-reducing conditions
Description: Immunoprecipitation is a technique for the detection and quantification of target protein. It comprises the five steps of radiolabelling of the cell-membrane proteins, cell lysis, formation of the specific antibody-antigen complexes, extraction of these complexes and analysis of the radiolabelled target proteins contained within the immunoprecipitation. All experiments were performed in triplicate.
For immunoprecipitation experiments, MCF-7 cells were cultured in 5% FBS-supplemented MEM. When sub-confluent, the medium was removed and the cells washed with phosphate buffered saline (PBS) (0.15 M sodium chloride, 20 mM sodium monophosphate; pH 7.5). The medium was then replaced with serum-free MEM and treated with angiotensin-II (A-II) at a concentration of 10^−5 M for 24 hours. Control cells were cultured in serum-free medium only. On this occasion the cells were harvested not by trypsinisation, which may impair the immunoprecipitation process, but with a cell scraper. They were then gently passed repeatedly through a narrow pipette, to break down cell clusters, and centrifuged at 900 rpm per ten minutes.
The cell pellets as above were taken up in PBS and counted with the haemocytometer. Trypan blue exclusion was employed so that 1-2×10^6 viable cells were taken up in each 1 ml aliquot. […]

breast cancer cells [2] = test: Breast cancer cell growth in culture, light microscopy
breast cancer cells [3] = test: Invasion chamber assay, IGF-I stimulated breast cancer cell invasion
Description: The effect of angiotensin-II (A-II) in inhibiting growth factor-induced stimulated cancer cell invasiveness was studied as a model system and the results are shown in FIG. 3. The study was carried out using an invasion chamber in which two compartments are separated by a perforated membrane coated in matrix protein. A chemoattractant, IGF-I, was added to the medium on one side of the chamber, and the breast cancer cells to the other. Invasiveness was measured by counting the cells that migrated from one chamber to the other.

β1 integrin [4] = test: Immunocytochemistry for β1 integrin expression in MCF-7 cancer cell line; settings: MCF-7 cells treated with A-II at 10^−5 M, versus control
Description: Immunocytochemical straining of both receptors was based on the standard streptavidinbiotin peroxidase method. For the optimal working concentration of both antibodies serial dilutions were performed. The AT1R antibody 6313/G2 in the range 1:1 to 1:500 and for anti-β1 integrin between 1:10 and 1:500.
For integrin B1 receptor straining both with and without A-II pre-treatment, harvested cells were plated onto sterile microscope slides within slide culture wells (Heraeus Instruments GmbH, Osterode am Harz, Germany) and incubated with fresh BCM. When sub-confluent the medium was replaced with serum-free BCM to which was added Angiotensin-II (A-II), or not in the case of controls which were subjected to otherwise identical preparation and straining. Angiotensin-II (A-II) was added in the concentration range 10^−5M to 10^−9M and incubated for 24 hours. The medium was then removed, the slides rinsed with PBS, air dried and stored frozen as above.
The slides, prepared as above, were removed from frozen storage and placed directly into 100% acetone (British Drug Houses) at −10° C. for 10 minutes. They were then air-dried for 10 minutes and rehydrated in 0.05 M Tris-buffered saline (TBS)(0.05 M sodium chloride, 0.05 M Trizma base, 36 mM hydrochloric acid, pH 7.6) twice for 3 minutes each. […]

With “Asp-Arg-Val-Tyr-Ile-His-Pro-Phe (DRVYIHPF; Sequence Source Uncertain) [angiotensin-II]” the “β1 integrin expression (density of protein band on gel autoradiograph)” value (β1 integrin [1]) was “relative increase in density; also recorded: increased expression”, the “stimulation of cell growth” value (breast cancer cells [2]; breast cancer cells in culture) was “did not stimulate cell growth” and the “size of cell clusters in culture” value (breast cancer cells [2]; grown in presence of angiotensin-II versus control cultures, light microscopy) was “larger clusters of cells”. For the same substance, the “reduction in mean invasion” value (breast cancer cells [3]; A-II pre-treatment versus control, IGF-I chemoattractant) was “tenfold reduction”, the mean invasion (breast cancer cells [3]; cells treated with A-II prior to invasion assay, chemoattractant IGF-I, control 1.58%, p=0.0011) was 0.15% and the “β1 integrin staining (expression of β1 integrin protein)” value (β1 integrin [4]) was “increase in staining”.
